What follows are molecules tested against T1, MAGL (recombinant wild-type) (Homo sapiens, UniProt Q99685) (assay: 4-NPA assay: MAGL inhibitory activity by hydrolysis of 4-nitrophenylacetate, absorbance at 405 nm). Settings: 4-NPA assay (values without footnote [b]).
T1 sequence (Q99685 1-303): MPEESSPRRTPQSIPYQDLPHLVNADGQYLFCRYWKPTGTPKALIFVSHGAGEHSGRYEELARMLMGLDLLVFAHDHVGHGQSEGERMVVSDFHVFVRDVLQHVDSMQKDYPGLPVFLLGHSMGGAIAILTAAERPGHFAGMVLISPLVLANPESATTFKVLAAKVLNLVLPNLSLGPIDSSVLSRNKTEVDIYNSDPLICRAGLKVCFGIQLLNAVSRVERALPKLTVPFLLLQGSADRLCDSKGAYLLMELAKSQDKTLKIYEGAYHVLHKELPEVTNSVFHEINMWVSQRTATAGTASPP
Assay type: biochemical
Procedure: Compounds were profiled for MAGL inhibitory activity by measuring the enzymatic activity of MAGL by following the hydrolysis of 4-nitrophenylacetate resulting in 4-nitrophenol, which absorbs at 405-412 nm (G. G. Muccioli, G. Labar, D. M. Lambert, Chem. Bio. Chem. 2008, 9, 2704-2710). This assay is hereinafter abbreviated “4-NPA assay”.
The assay was carried out in 384 well assay plates (black with clear bottom, non-binding surface treated, Corning Ref. 3655) in a total volume of 40 μL. Compound dilutions were made in 100% DMSO (VWR Chemicals 23500.297) in a polypropylene plate in 3-fold dilution steps to give a final concentration range in the assay from 25 μM to 1.7 nM. 1 μL compound dilutions (100% DMSO) were added to 19 μL MAGL (recombinant wild-type) in assay buffer (50 mM TRIS (GIBCO, 15567-027), 1 mM EDTA (Fluka, 03690-100 mL)). The plate was shaked for 1 min at 2000 rpm (Variomag Teleshake) and then incubated for 15 min at RT. To start the reaction, 20 μL 4-Nitrophenlyacetate (Sigma N-8130) in assay buffer with 6% EtOH was added. The final concentrations in the assay were 1 nM MAGL and 300 μM 4-Nitrophenylacetate. After shaking (1 min, 2000 rpm) and 5 min incubation at RT, the absorbance at 405 nm was measured for a first time (Molecular Devices, SpectraMax Paradigm). A second measurement was then done after incubation for 80 min at RT. From the two measurements, the slope was calculated by subtracting the first from the second measurement.

Row | SMILES | IC50 [nM]
1 | Cc1ccc2oc(N3CCN(C(=O)c4ccc5nc(C6CC6)oc5c4)CC3)nc2n1 [Example 22, (2-cyclopropyl-1,3-benzoxazol-6-yl)-[4-(5-methyloxazolo[4,5-b]pyridin-2-yl)piperazin-1-yl]methanone] | 1250
2 | CC(=O)Cc1nc(-c2ccc(C(=O)N3CCN(c4nc5nc(Cl)ccc5o4)CC3)cc2)no1 [Example 23, 1-[3-[4-[4-(5-chlorooxazolo[4,5-b]pyridin-2-yl)piperazine-1-carbonyl]phenyl]-1,2,4-oxadiazol-5-yl]propan-2-one] | 1550
3 | CC(C)(F)c1nc(-c2ccc(C(=O)N3CCN(c4nc5nc(Cl)ccc5o4)CC3)cc2)no1 [Example 24, [4-(5-chlorooxazolo[4,5-b]pyridin-2-yl)piperazin-1-yl]-[4-[5-(1-fluoro-1-methyl-ethyl)-1,2,4-oxadiazol-3-yl]phenyl]methanone] | 74
4 | CC(C)(C)Cc1noc(-c2ccc(C(=O)N3CCN(c4nc5nc(Cl)ccc5o4)CC3)cc2)n1 [Example 25, [4-(5-chlorooxazolo[4,5-b]pyridin-2-yl)piperazin-1-yl]-[4-[3-(2,2-dimethylpropyl)-1,2,4-oxadiazol-5-yl]phenyl]methanone] | 3
5 | O=C(c1ccc(-c2noc(C3(F)CC3)n2)cc1)N1CCN(c2nc3nc(Cl)ccc3o2)CC1 [Example 26, [4-(5-chlorooxazolo[4,5-b]pyridin-2-yl)piperazin-1-yl]-[4-[5-(1-fluorocyclopropyl)-1,2,4-oxadiazol-3-yl]phenyl]methanone] | 206
6 | CC(C)(C)Cn1cnc(-c2ccc(C(=O)N3CCN(c4nc5nc(Cl)ccc5o4)CC3)cc2)n1 [Example 27, [4-(5-chlorooxazolo[4,5-b]pyridin-2-yl)piperazin-1-yl]-[4-[1-(2,2-dimethylpropyl)-1,2,4-triazol-3-yl]phenyl]methanone] | 3
7 | Cc1ccc2oc(N3CCN(C(=O)c4ccc(-c5ncn(CC(C)(C)C)n5)cc4)CC3)nc2n1 [Example 28, [4-[1-(2,2-dimethylpropyl)-1,2,4-triazol-3-yl]phenyl]-[4-(5-methyloxazolo[4,5-b]pyridin-2-yl)piperazin-1-yl]methanone] | 12
8 | CC(C)(C)Cn1cnc(-c2ccc(C(=O)N3CCN(c4nc5nc(Cl)ccc5o4)CC3)cc2)c1 [Example 29, [4-(5-chlorooxazolo[4,5-b]pyridin-2-yl)piperazin-1-yl]-[4-[1-(2,2-dimethylpropyl)imidazol-4-yl]phenyl]methanone] | 3
9 | CC(C)(C)c1nnc(-c2ccc(C(=O)N3CCN(c4nc5nc(Cl)ccc5o4)CC3)cc2)o1 [Example 30, [4-(5-tert-butyl-1,3,4-oxadiazol-2-yl)phenyl]-[4-(5-chlorooxazolo[4,5-b]pyridin-2-yl)piperazin-1-yl]methanone; 2,2,2-trifluoroacetic acid] | 68
10 | Cc1ccc2oc(N3CCN(C(=O)c4ccc(-c5nnc(C(C)(C)C)o5)cc4)CC3)nc2n1 [Example 31, [4-(5-tert-butyl-1,3,4-oxadiazol-2-yl)phenyl]-[4-(5-methyloxazolo[4,5-b]pyridin-2-yl)piperazin-1-yl]methanone] | 260
11 | CC(C)(O)Cc1nc(-c2ccc(C(=O)N3CCN(c4nc5nc(Cl)ccc5o4)CC3)cc2)no1 [Example 32, [4-(5-chlorooxazolo[4,5-b]pyridin-2-yl)piperazin-1-yl]-[4-[5-(2-hydroxy-2-methyl-propyl)-1,2,4-oxadiazol-3-yl]phenyl]methanone] | 653
12 | Cc1ccc2oc(N3CCN(C(=O)c4ccc(-c5nnc(C(C)(C)CF)o5)cc4)CC3)nc2n1 [Example 33, [4-[5-(2-fluoro-1,1-dimethyl-ethyl)-1,3,4-oxadiazol-2-yl]phenyl]-[4-(5-methyloxazolo[4,5-b]pyridin-2-yl)piperazin-1-yl]methanone] | 498
